The results in this text go back to PMC9782510, “Natural Antioxidants, Tyrosinase and Acetylcholinesterase Inhibitors from Cercis glabra Leaves” (Molecules, 2022).

The nature of test [1]: ABTS radical scavenging assay. On the procedure: The ABTS radical scavenging assay was modified according to the method with slight modifications. Briefly, the ABTS radical cation was obtained by mixing ABTS diammonium salt stock solution (7.4 mM) with potassium persulfate (2.6 mM) in equal proportion and reacting it at 37 °C in darkness for 12–16 h. Before used, the absorbance of light green ABTS radical test solution at 745 nm was controlled to be 0.70 ± 0.02 by diluting with methanol. Sample solution and ABTS methanol solution (10 µL:190 µL) were added to 96-well microplate, and L-ascorbic acid was the positive control. After incubation at 37 °C for 10 min, the absorbance was tested at 745 nm using a microplate reader. Scavenging rate was calculated according to Equation (1). (1) ABTS radical scavenging activity (%) =AC–AS/AC×100 where AC and AS are the absorbance of the blank control and the compounds to be tested, respectively.

A short description of test [2]: PTIO radical scavenging assay. The protocol:
The PTIO radical scavenging activity was assayed by referring to relevant methods. Briefly, PTIO radical solid (3 mg) was dissolved in 20 mL of methanol, and sample solution and PTIO methanol solution (40 µL:160 µL) were added to a 96-well microplate. The absorbance was determined at 585 nm using a microplate reader after 30 min of incubation and the scavenging rate was calculated on the basis of Equation (2). (2) PTIO radical scavenging activity (%) =[1−AS/AC]×100 where AS is the absorbance of the compounds to be tested and AC is the absorbance of the untreated control.

The target of test [3] is Acetylcholinesterase (AChE) (Electrophorus electricus, UniProt O42275). As to the kind of experiment: Acetylcholinesterase inhibitory activity (ATCI/DTNB). The test is classed as biochemical. Conditions: for inhibition at 1000 µg/mL: read-out: Acetylcholinesterase Inhibition (%).
Acetylcholinesterase (AChE), sequence (O42275 24-633): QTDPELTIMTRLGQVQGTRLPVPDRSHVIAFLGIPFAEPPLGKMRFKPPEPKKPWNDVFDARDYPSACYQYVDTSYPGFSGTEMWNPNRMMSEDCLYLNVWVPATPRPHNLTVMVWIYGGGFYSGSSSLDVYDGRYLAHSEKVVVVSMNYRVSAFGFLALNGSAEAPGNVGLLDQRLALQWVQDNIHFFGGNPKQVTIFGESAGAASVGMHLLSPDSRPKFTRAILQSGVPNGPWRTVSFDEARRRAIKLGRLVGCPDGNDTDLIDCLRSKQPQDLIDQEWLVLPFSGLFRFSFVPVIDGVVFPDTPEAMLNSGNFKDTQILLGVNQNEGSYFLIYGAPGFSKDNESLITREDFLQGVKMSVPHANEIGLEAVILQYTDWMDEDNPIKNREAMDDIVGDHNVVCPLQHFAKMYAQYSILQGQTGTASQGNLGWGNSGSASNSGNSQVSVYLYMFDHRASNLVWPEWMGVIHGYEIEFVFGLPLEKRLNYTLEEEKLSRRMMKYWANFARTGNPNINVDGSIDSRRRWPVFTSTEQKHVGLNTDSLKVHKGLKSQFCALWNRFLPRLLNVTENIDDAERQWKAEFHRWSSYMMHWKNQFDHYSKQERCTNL
Description: The experiment of acetylcholinesterase inhibition activity was slightly modified according to the literature [55]. Acetylcholinesterase (AChE) and acetylthiocholine iodide (ATCI) were dissolved in 0.1 M phosphate buffer (pH 8.0). 5,5′-Dithiobis-(2-nitrobenzoic acid) (DTNB) was prepared in 10 mL of 0.1 M phosphate buffer (pH 7.0) with a small amount of NaHCO3. A total of 120 µL of 0.1 M phosphate buffer (pH 8.0), 20 µL of 3 mM DTNB solution, 20 µL of sample solution and 20 µL of AChE (0.2 U/mL) were sequentially added to the 96-well microplate, and the mixture reacted for 10 min at 37 °C. The reaction was started by adding 20 µL of 3 mM ATCI and the mixture was incubated at 37 °C for 20 min. Donepezil was chosen as the positive control. […] (4) Acetylcholinesterase inhibition activity (%) =[1−(AS–Aj)/AC]×100 where As and Aj are the absorbance of the compound to be tested and tested compound blanks, respectively, and AC is the absorbance of the untreated control.
The nature of test [4]: DPPH radical scavenging assay. The protocol:
The scavenging ability on DPPH radical was conducted based on the method with some modifications. The sample solution and DPPH methanol solution (20 µL:180 µL) were added to a 96-well microplate. L-ascorbic acid was the positive control. The absorbance at 517 nm was measured using a microplate reader after the solution had stood for 30 min at 37 °C under dark conditions. The calculation formula of DPPH radical scavenging activity is consistent with the formula of ABTS radical scavenging activity.

The test system of another test is mushroom tyrosinase. As to the kind of experiment: Mushroom tyrosinase inhibitory activity (L-tyrosine substrate). Conditions: for Tyrosinase Inhibition (%): at initial concentration of 1 mg/mL, means ± SEMs; for IC50: read-out: Tyrosinase inhibition IC50. The test is classed as biochemical.

Description for mushroom tyrosinase: Mushroom tyrosinase (400 U/mL) and L-tyrosine (3 mM) were added separately in 0.05 M potassium phosphate buffer (pH 6.5). A total of 80 µL of potassium phosphate buffer (pH 6.5), 80 µL of L-tyrosine (3 mM) solution, 20 µL of sample solution and 20 µL of mushroom tyrosinase (400 U/mL) were added to a 96-well microplate. The mixture reacted for 1 h at 37 °C. […] The absorbance was measured at 490 nm using a microplate reader and Equation (3) was used to calculate the inhibition rate. (3) Tyrosinase inhibition activity (%) =AC–AS/AC×100
Equation (3) is the absorbance of the test compound and AC is the absorbance of the untreated control.

As for `COC(=O)[C@@H](O)[C@H](OC(=O)/C=C/c1ccc(O)cc1)C(=O)OC` [Compound 1, (2′S, 3′S)-trans-4-coumaroyltartaric acid dimethyl ester], the IC50 was more than 500 µM in test [1], more than 100000 µM in test [2], more than 100000 µM in test [4] and 2630 µM at mushroom tyrosinase. Also, the inhibition at 1000 µg/mL in test [3] turned out to be 38.43 ± 0.2%. In addition, the “Tyrosinase Inhibition (%)” value in the test on mushroom tyrosinase came to 53.13 ± 0.65%.
As for `COC(=O)[C@H](O)[C@@H](OC(=O)/C=C/c1ccc(O)cc1)C(=O)O` [Compound 2, (2′R, 3′R)-trans-4-coumaroyl-4′-methoxyl-tartaric acid], the concentration for half-maximal inhibition (IC50) in test [1] was more than 500 µM; in test [2] it was more than 100000 µM; in test [4], more than 100000 µM; at mushroom tyrosinase, 2590 µM. Further, the inhibition at 1000 µg/mL in test [3] stood at 39.46 ± 0.25%. Moreover, in the test on mushroom tyrosinase, the “Tyrosinase Inhibition (%)” value was determined as 53.54 ± 0.90%.
Consider `O=c1c(O)c(-c2cc(O)c(O)c(O)c2)oc2cc(O)cc(O)c12` [Compound 3, myricetin], for which the IC50 is 94 µM in test [1], 2560 µM in test [2], 870 µM in test [4] and 1390 µM at mushroom tyrosinase. Further, in test [3], the inhibition at 1000 µg/mL worked out at 85.27 ± 0.06%. Also, the “Tyrosinase Inhibition (%)” value in the test with mushroom tyrosinase is given as 60.00 ± 1.49%.
For `COc1cc(-c2oc3cc(O)cc(O)c3c(=O)c2O)ccc1O` [Compound 4, isorhamnetin], the IC50 in test [1] was more than 500 µM; in test [2] it was 44300 µM; in test [4] it was 6250 µM; at mushroom tyrosinase, 4690 µM. Moreover, the inhibition at 1000 µg/mL in test [3] was 68.13 ± 0.24%. Also, the “Tyrosinase Inhibition (%)” value with mushroom tyrosinase stood at 44.17 ± 0.85%.
`O=c1c(O)c(-c2ccc(O)c(O)c2)oc2cc(O)cc(O)c12` [Compound 5, quercetin]: the half-maximal inhibitory concentration (IC50) in test [1] came to 97 µM; in test [2], 6360 µM; in test [4], 590 µM. For the same compound, the inhibition at 1000 µg/mL in test [3] turned out to be 83.65 ± 0.48%. Further, in the test on mushroom tyrosinase, the “Tyrosinase Inhibition (%)” value worked out at 77.29 ± 1.52%.
Take `O=c1c(O)c(-c2ccc(O)cc2)oc2cc(O)cc(O)c12` [Compound 6, kaempferol]: the IC50 was 108 µM in test [1], 14700 µM in test [2], 590 µM in test [4] and 1690 µM on mushroom tyrosinase. Further, the inhibition at 1000 µg/mL in test [3] was 82.21 ± 0.09%. Further, the “Tyrosinase Inhibition (%)” value in the test with mushroom tyrosinase was determined as 57.50 ± 0.82%.
`C[C@@H]1O[C@@H](Oc2c(-c3ccc(O)cc3)oc3cc(O)cc(O)c3c2=O)[C@H](O)[C@H](O)[C@H]1O` [Compound 7, afzelin]: the 50% inhibitory concentration (IC50) was more than 500 µM in test [1], more than 100000 µM in test [2], more than 100000 µM in test [4] and 9240 µM on mushroom tyrosinase. For the same compound, the “Tyrosinase Inhibition (%)” value with mushroom tyrosinase was 32.71 ± 1.51%.
For `C[C@@H]1O[C@@H](Oc2c(-c3ccc(O)c(O)c3)oc3cc(O)cc(O)c3c2=O)[C@H](O)[C@H](O)[C@H]1O` [Compound 8, quercitrin], the IC50 in test [1] was more than 500 µM; in test [2], more than 100000 µM; in test [4], 6560 µM; at mushroom tyrosinase it was 4960 µM. In addition, the inhibition at 1000 µg/mL in test [3] was determined as 40.11 ± 0.31%. The “Tyrosinase Inhibition (%)” value with mushroom tyrosinase was found to be 39.17 ± 0.86%.
For `C[C@@H]1O[C@@H](Oc2c(-c3cc(O)c(O)c(O)c3)oc3cc(Oc4cc(O)c5c(=O)c(O[C@@H]6O[C@@H](C)[C@H](O)[C@@H](O)[C@H]6O)c(-c6cc(O)c(O)c(O)c6)oc5c4)cc(O)c3c2=O)[C@H](O)[C@H](O)[C@H]1O` [Compound 10, myricetin-3-O-rhamnoside-(C7-I-O-C7-II)-myricetin-3-O-rhamnoside], the IC50 was 45 µM in test [1], 530 µM in test [2], 560 µM in test [4] and 650 µM at mushroom tyrosinase. For the same compound, in test [3], the inhibition at 1000 µg/mL was 61.3 ± 0.38%. Besides, the “Tyrosinase Inhibition (%)” value with mushroom tyrosinase was determined as 66.04 ± 0.62%.
As for `CC[C@H](CC[C@@H](C)[C@H]1CC[C@H]2[C@@H]3CC=C4C[C@@H](O[C@@H]5O[C@H](CO)[C@@H](O)[C@H](O)[C@H]5O)CC[C@]4(C)[C@H]3CC[C@]12C)C(C)C` [Compound 11], the half-maximal inhibitory concentration (IC50) in test [1] was more than 500 µM; in test [2], more than 100000 µM; in test [4], more than 100000 µM; on mushroom tyrosinase, 8840 µM. In test [3], the inhibition at 1000 µg/mL was 40.8 ± 0.41%. Besides, in the test with mushroom tyrosinase, the “Tyrosinase Inhibition (%)” value was 29.79 ± 0.88%.
Take `CC(=O)CCc1ccc(O[C@@H]2O[C@H](CO)[C@@H](O)[C@H](O)[C@H]2O)cc1` [Compound 12, 4-(4′-Hydroxyphenyl)-2-butanone-4′-O-β-D-glucopyranoside]: the IC50 in test [1] was more than 500 µM; in test [2], more than 100000 µM; in test [4] it was 34900 µM; at mushroom tyrosinase, 7470 µM. For the same compound, the inhibition at 1000 µg/mL in test [3] came out at 39.8 ± 0.53%. Also, the “Tyrosinase Inhibition (%)” value in the test with mushroom tyrosinase is on record as 35.63 ± 1.01%.
Take `O=C(O)c1cc(O)c(O)c(O)c1` [Compound 13, gallic acid]: the IC50 was 179 µM in test [1], more than 100000 µM in test [2], 770 µM in test [4] and 590 µM at mushroom tyrosinase. In test [3], the inhibition at 1000 µg/mL stood at 71.74 ± 0.4%. Moreover, in the test with mushroom tyrosinase, the “Tyrosinase Inhibition (%)” value came to 80.00 ± 0.78%.
Consider `COC(=O)C[C@H]1CCC(=O)[C@H]1C/C=C\CCO[C@@H]1O[C@H](CO)[C@@H](O)[C@H](O)[C@H]1O` [Compound 14, methyl-β-D-glucopyranosyl tuberonate], for which the IC50 in test [1] was more than 500 µM; in test [2] it was more than 100000 µM; in test [4], more than 100000 µM. Further, the inhibition at 1000 µg/mL in test [3] was found to be 47.18 ± 0.16%. Further, the “Tyrosinase Inhibition (%)” value in the test on mushroom tyrosinase is listed as 37.71 ± 0.56%.
Regarding `O=C1c2c(O[C@@H]3O[C@H](CO)[C@@H](O)[C@H](O)[C@H]3O)cc(O)cc2OC1(O)Cc1ccc(O)cc1` (stereo partly drawn) [Compound 15, hovetrichoside C], the IC50 is more than 500 µM in test [1], more than 100000 µM in test [2], more than 100000 µM in test [4] and 4040 µM at mushroom tyrosinase. For the same compound, in test [3], the inhibition at 1000 µg/mL stood at 39.91 ± 0.36%. In addition, the “Tyrosinase Inhibition (%)” value in the test on mushroom tyrosinase is listed as 42.08 ± 0.54%.
Regarding `O=C1O[C@H]([C@@H](O)CO)C(O)=C1O` [L-ascorbic acid, reference compound], the IC50 came to 156 µM in test [1], 1610 µM in test [2] and 440 µM in test [4].
Consider kaempferol-3-O-rutinoside [Compound 9], for which the IC50 in test [1] is more than 500 µM; in test [2], 27600 µM; in test [3] (read-out: Acetylcholinesterase inhibition IC50), more than 1000 µM; in test [4] it was more than 100000 µM. Further, the “Acetylcholinesterase Inhibition (%)” value in test [3] (at initial concentration of 1 mg/mL, means ± SEMs) was found to be 39.90 ± 0.33%. The “Tyrosinase Inhibition (%)” value with mushroom tyrosinase came to 23.54 ± 1.04%.
